# Source: patent US11603386B2, “Insect, tick, and mite repellent derived from Xenorhabdus budapestensis” (Wisconsin Alumni Research Foundation, priority 2017, dated 2023)
# Tested on: Aedes aegypti
# Assay: Repellent screening assay (in vitro membrane feeding, Hemotek feeder, treated cloth)
# Type: in vivo
# Settings: for RD90: concentration producing 90% reduction in feeding rate, 30 min exposure
# Description: FIG. 1 is a photograph of the equipment used for the repellent screening assay. The apparatus includes a temperature-controlled feeder unit which includes a collagen casing covered by conventional cheese cloth. The collagen mimics the surface of human and is in contact with a heating element (not seen in FIG. 1) whose temperature is controlled by the temperature controller. The collagen pad is saturated with a solution that mimics human blood. The compound whose repellency is to be tested is applied to the cheese cloth, which is then affixed to the collagen pad. In the main panel in FIG. 1, the feeder unit is shown in its operational position, on top of a container in which are mosquitos (or any other arthropod) that is to be repelled. […] In practice, a known amount of putative repellent is applied to the cheese cloth. Unfed mosquitos, for example, are within the mosquito container. The feeder unit is then placed on top of the mosquito container for a pre-determined amount of time. The mosquitos are then sacrificed and examined to determine how many mosquitos fed (i.e., were not repelled) and how many mosquitos were still unfed after the test (i.e., were repelled). In this fashion, very reliable data can be generated regarding the effectiveness of any putative repellent composition. See Katritzky, A. R., et al. (2008) Proc. Nat. Acad. Sci. (US), 105:7359-7364 and Katritzky, A. R., et al. (2010) Journal of Med. Entomol., 47:924-938.
# Unfed mosquitos are then used as test subjects. After the time course of each experiment is completed, the mosquitos are sacrificed and examined to determine how many mosquitos have fed (and thus were not repelled) versus how many mosquitos remain unfed (and thus were repelled). Fed versus unfed mosquitos can be separated by simple visual examination. Fed mosquites have an engorged, distended appearance. Representative images depicting the appearance of fed vs unfed mosquitoes resulting from the repellent screening assays is shown in FIG. 7. Images clearly show engorged abdomens and food red dye when mosquitoes were exposed to water only as negative repellent controls (FIG. 7, panel A).
# A colony of the Aedes aegypti Liverpool strain was maintained at the University of Wisconsin according to standard procedures reported previously (Paskewitz et al., 1999; Kajla et al., 2010, Christensen et al., 1984). Anopheles gambiae and Culex pipiens (Iowa strain) were reared according to established protocols (Aliota et al., 2016) in a 100 square feet walk-in environmental chamber maintained at 26.5±0.5° C. and 80±5% relative humidity. For egg production, adult female mosquitoes were offered defibrinated rabbit blood (HemoStat Laboratories, Dixon, Calif., USA) via a Hemotek-brand membrane feeding system (Discovery Workshops, Accrington, UK) once a week. Adult mosquitoes were maintained on a constant exposure to 10% sucrose on cotton balls and larvae were fed Tetramin®-brand fish food. For repellent assays, nulliparous, mated, twenty 7-10 days old adult female mosquitoes were separated in screened pint-size paper containers (Neptune Paper Products, Fort Lee, N.J., USA). Mosquitoes were starved for 12-16 hours before the repellent assay. Mosquitoes were exposed to repellent compounds for 30 min at room temperature (incandescent light, 25-26° C.) between 10:00 am and 4:00 pm (see below for repellent assay set-up).
# A Hemotek-brand feeding system was used to keep the feeding solution at a constant temperature set at 37° C. […]
Structure (SMILES),RE90 (relative efficacy),"Feeding (engorgement / red dye in abdomen) (1%, positive control, FIG. 7 panel B)",RD90
"CCN(CC)C(=O)c1cccc(C)c1 [DEET, N,N-diethyl-3-methylbenzamide]",1,no feeding occurred,0.188 Percent concentration (v/v)
CCC(C)OC(=O)N1CCCCC1CCO (centres unmarked) [Picaridin],0.37,,0.498 Percent concentration (v/v)
